Counter-ions that a name gives are not always drawn. Some results are limits rather than exact numbers.

Data set [1] is described as follows: hygroscopicity (amount of water absorbed). In kind it is physicochemical. The source says:
Furthermore, the hygroscopicity of the choline salt is much reduced compared with the free acid. The amount of water absorbed by the free acid is 2.4% and 2.8% by weight after 1 day at 80% and 92% humidity, respectively, and the amount of water absorbed by the choline salt is 0.7% and 0.6% by weight after 1 day at 80% and 92% humidity, respectively.

A short description of data set [2]: solubility in aqueous solution at pH 1.0-7.0. Type of data set: physicochemical. Conditions: aqueous buffer, pH 1.0-7.0, as a free acid. How it is done: [drawing 1] is a weakly acidic compound and is practically insoluble in aqueous solution at pH 1.0-7.0 as a free acid (<0.005 mg/ml).
Data set [3] is described as follows: pharmacokinetic study in male beagle dogs (plasma concentrations). Conditions: dog, in vivo, 0.3 mg/kg.
Data set [4] can be described thus: oral exposure in male SPRAGUE DAWLEY rats. In kind it is in vivo. Conditions: dosed at 10 mg/kg to male SPRAGUE DAWLEY rats. On the procedure: (§1) The choline salt has also a much improved dissolution rate at pH 1 and oral exposure when dosed at 10 mg/kg to male SPRAGUE DAWLEY® rats compared to the free acid form.
A short description of data set [5]: solubility in simulated gastric fluid. In kind it is physicochemical.
Data set [6] in a line: conversion into free acid form in gastric acidic conditions. Type of data set: physicochemical. The text has this:
The result of this is poor bioavailability of 6-chloro-3-[2-(1-ethyl-propylamino)-3,4-dioxo-cyclobut-1-enylamino]-2-hydroxy-N-methoxy-N-methyl-benzenesulfonamide.

Data set [7] is described as follows: dissolution rate at pH 1. In kind it is physicochemical. On the procedure:
as §1

Regarding `CCC(CC)Nc1c(Nc2ccc(Cl)c(S(=O)(=O)N(C)OC)c2O)c(=O)c1=O` [free acid, 6-chloro-3-[2-(1-ethyl-propylamino)-3,4-dioxo-cyclobut-1-enylamino]-2-hydroxy-N-methoxy-N-methyl-benzenesulfonamide], the “amount of water absorbed” value turned out to be 2.4 % by weight in data set [1] (after 1 day at 80% humidity) and 2.8 % by weight in data set [1] (after 1 day at 92% humidity). In data set [2], the solubility was less than 5 µg/mL.
As for `CCC(CC)Nc1c(Nc2ccc(Cl)c(S(=O)(=O)N(C)OC)c2O)c(=O)c1=O` [choline salt, 6-chloro-3-[2-(1-ethyl-propylamino)-3,4-dioxo-cyclobut-1-enylamino]-2-hydroxy-N-methoxy-N-methyl-benzenesulfonamide choline], the “systemic exposure after intravenous administration” value in data set [3] stood at 912 ± 126 ng·h/mL. Moreover, in data set [4], the “oral exposure compared to the free acid form” value is “much improved”. In addition, the “amount of water absorbed” value in data set [1] (after 1 day at 80% humidity) was 0.7 % by weight; in data set [1] (after 1 day at 92% humidity) it was 0.6 % by weight. Moreover, the solubility in data set [5] (simulated gastric fluid at pH 1.2) was 8020 µg/mL. In addition, in data set [5] (vs sodium, calcium, N,N-dimethyl-2-aminoethanol and N-(2-hydroxyethyl)pyrrolidine salts), the “solubility in simulated gastric fluid compared to other salts” value is reported as “significantly improved”. For the same molecule, the “conversion into the free acid form” value in data set [6] is given as “readily converts”. The “dissolution rate compared to the free acid form” value in data set [7] is “much improved”.

(Values after patent publication US9018261B2, “Choline salt of an anti-inflammatory substituted cyclobutenedione compound” (Novartis AG, priority 2011, dated 2015).)
